Reference: patent US20250305023A1, “MEASUREMENT OF PERMEATION OF SMALL MOLECULES INTO GRAM NEGATIVE BACTERIA” (University of Virginia Patent Foundation, priority 2022, published 2025)
In brackets after ≈: the same amount, converted by molar mass.

What was measured:
[1] = tested on: E. coli expressing HaloTag; experiment: BaCAPA control: labeling with chloroalkane-tagged dye; type: cell-based, Escherichia coli; details: 5 μM dye, compared with R110cl, FIG. 2C
Description: In an embodiment, fluorescence levels were determined in bacterial cells that express HaloTag proteins in the cytosol by encoding the protein on an inducible plasmid. Bacterial cells carrying the HaloTag-expressing plasmid were grown to mid-log, induced with isopropyl-β-D-1-thiogalactopyranoside (IPTG), and incubated with a fluorophore modified chloroalkane. Cytosolic HaloTag promotes the formation of a covalent bond with the fluorophore-linked chloroalkane tail (FIG. 2A). Total labeling levels of bacterial cells is then quantified using flow cytometry. In a first step in the BaCAPA, bacterial cells were treated with Rhodamine 110 modified with chloroalkane (R110cl). […] Appreciating that the fluorophore itself could be subject to the same barrier elements that are inherent to E. coli, there was also evaluated the labeling of bacterial cells with a smaller fluorophore, namely coumarin (COMcl). […] While it was clear that coumarin could also covalently modify HaloTag-expressing bacterial cells, the relative fluorescence increase was more modest in cells treated with COMcl (FIG. 2C). […]
To empirically establish the dye concentration that optimizes the signal output for the assay, bacterial cells were treated with a range of R110cl concentrations (FIG. 2D). […] HaloTag labeling with R110cl can be analyzed from the whole cellular proteome because of the selectivity of this enzymatic reaction. […]

[2] = tested on: E. coli expressing HaloTag; experiment: Bacterial ChloroAlkane Penetration Assay (BaCAPA) pulse-chase, flow cytometry; type: cell-based, Escherichia coli; details: for EC50: Escherichia coli, pulse with chloroalkane-tagged molecule, IPTG induced, flow cytometry, read-out: EC50 (apparent accumulation/permeation, BaCAPA)
Description: This method relies on the genetically encoded HaloTag^24, a mutant form of a bacterial haloalkane dehalogenase that facilitates covalent bond formation with chloroalkane-linked ligands (FIG. 1). […] The assay is based on the expression of the HaloTag protein inside bacterial cells, which are exposed to molecules of interest linked to a chloroalkane tag. If the molecules reach the HaloTag proteins inside the bacteria, they will be covalently bound to the protein. This pulse step is followed by a chase step with a fluorophore-linked chloroalkane. […] Conversely, when a large fraction of molecules of interest permeate the cell membranes and reach the HaloTag proteins, there will be reduced sites available to react with the fluorophore.
In some embodiments, the BaCAPA process can report on apparent accumulation of small molecules past the cellular envelope. In these embodiments, (non-fluorescent) small molecules modified with the chloroalkane are incubated with the bacterial cells expressing HaloTag first (pulse step), which is then followed by a treatment step with the dye R110cl (chase step).
HaloTag Protein Expression: Cytoplasmic HaloTag protein. For expression of the HaloTag protein in E. coli, HaloTag expression plasmid Cyto_Halo_pET21(b)+ was transformed into E. coli BL21(DE3) and grown on an LB/agar plate with ampicillin (100 μg/mL) at 37° C. overnight. Colonies were picked and grown in 5 mL LB broth with ampicillin at 37° C. overnight. A culture tube containing 2 mL LB media was inoculated with the overnight culture at a ratio of 1:100 and cells were grown at 37° C. for 3 h hours, or until the optical density at 600 nm reached 0.6. Cultures were induced with 1 mM Isopropyl β-d-1-thiogalactopyranoside (IPTG) at 37° C. for 2 hours in a shaker incubator, and then pelleted at 4,000 rpm for 3 min in an HERAEUS Multicentrifuge X1 centrifuge (Thermofisher Scientific). The pellet was washed three times with 1×PBS pH 7.2 following which cells were ready for assaying. The identity of the protein was confirmed by SDS-PAGE.
BaCAPA Pulse-Chase Protocol (chloroalkane-tagged molecule, chloroalkane-tagged dye). For a bacterial chloroalkane penetration assay (BaCAPA), 25 μL of serially diluted samples of the chloroalkane-tagged test molecule, in quadruplicate, were transferred into a 96-well plate at 2× of the desired concentration. The pellet obtained from the washing step above was resuspended in 2 mL of 1×PBS by vortexing thoroughly. […]

[3] = tested on: E. coli; experiment: Minimum Inhibitory Concentration; type: cell-based, Escherichia coli; details: for MIC: Escherichia coli, 24 h, 37° C., MH media
Description: For all biological assays, laboratory strains of wild type E. coli (ATCC 25922), and K12 E. coli strains BL21(DE3) and E. coli Lemo21(DE3) were grown with shaking at 37° C. overnight from freezer glycerol stocks in 5 mL of Luria Broth (LB) media.
Minimum Inhibitory Concentration. Compounds were serially diluted 2-fold from stock solutions to yield 12 test concentrations in U-bottom, 96-well plates. Overnight cultures were used to inoculate LB media 1:100 and regrown to exponential phase, as determined by optical density recorded at 600 nm (OD600). All cultures were diluted again to ca. 10^6 CFU/mL in MH media, and 100 μL was inoculated into each well of a U-bottom 96-well plate (BD Biosciences, BD 351177) containing 100 μL of compound solution (in line with CLSI Standards).^4Plates were incubated statically at 37° C. for 24 h upon which time wells were evaluated visually for bacterial growth. The MIC was determined as the lowest concentration of compound resulting in no bacterial growth visible to the naked eye, based on the majority of three independent experiments. Growth and sterility controls were conducted for each plate.

[4] = tested on: E. coli outer membrane; experiment: Outer membrane disruption: co-treatment with R110cl in BaCAPA; type: cell-based, Escherichia coli; details: for cellular fluorescence on co-incubation with R110cl: various concentrations, 5 μM R110cl, FIG. 3A/3B
Text: It is well appreciated that the OM is the major barrier to the permeation of small molecules.^28 Considerable efforts have been devoted to the discovery of molecules that disrupt the OM barrier as antibiotic adjuvants with the goal of potentiating them and/or circumventing resistance.^29-31 Therefore, these agents hold the promise of synergistically enhancing the permeation of potential antibiotics in a broad and, potentially, impactful way.
While there was a decrease in signal-to-noise, the signal strength in the presence of IPTG was well above that in the absence of IPTG.
Polymyxin nonapeptide (PMBN) mediated bacterial chloroalkane-tagged molecule penetration. For the PMBN-mediated penetration assay, 25 μL of the desired PMBN concentration was added into the wells of a 96-well plate at 3× the final concentration along with 25 μL of the HaloTag protein cell suspension (both IPTG induced and non-induced cells). Next, 25 μL of the serially diluted samples of the chloroalkane-tagged test molecule was added into the wells at 3× the desired final concentration, in quadruplicate. The plates were incubated at 37° C. with shaking at 250 RPM. After 30 min, the plate was centrifuged to pellet the cells using a Jouan C4i centrifuge (Thermofisher Scientific). The supernatant was discarded, and the pellet was washed twice with PBS. The chase step followed by addition into each test well, 50 μL of […] chloroalkane-tagged rhodamine 110 and incubated for 30 min at 37° C. with shaking in a shaker incubator at 250 RPM. The plate was centrifuged to pellet the cells and cells were washed three times with PBS and fixed with 4% formaldehyde by incubating at room temperature for 30 min. The cells were analyzed by flow cytometry on the Attune NXT Acoustic Focusing Cytometer (Invitrogen) by exciting using the blue laser ([…]).

[5] = tested on: E. coli cells

Molecule: Cc1c(CC(=O)NCCOCCOCCCCCCCl)c(=O)oc2cc(N)ccc12 [COMcl]
- relative fluorescence increase in HaloTag-expressing cells [1]: more modest

Molecule: Cl.NCCOCCOCCCCCCCl [Compound 1, 2-(2-((6-Chlorohexyl)oxy)ethoxy)ethanamine hydrochloride]
- EC50 ([2]; chase with 5 μM R110cl): ~5 µM
- concentration at which nearly background fluorescence levels were observed ([2]; concentration scan, chase with 5 μM R110cl): 12 µM

Molecule: C[N+](C)(C)CC(=O)NCCOCCOCCCCCCCl [Compound 5, HaloTag-betainamide]
- relative accumulation in E. coli ([2]; methylation series of amino group, FIG. 4A): statistically significant lowered accumulation level

Molecule: O=C(CCC(=O)N1CCN(c2cc3c(cc2F)c(=O)c(C(=O)O)cn3C2CC2)CC1)NCCOCCOCCCCCCCl [Compound 6]
- EC50 ([2]; chase with 5 μM R110cl): 42.2 µM
- MIC [3]: 0.5 µg/mL (≈ 0.785 µM)

Molecule: O=C(CN1CCN(c2cc3c(cc2F)c(=O)c(C(=O)O)cn3C2CC2)CC1)NCCOCCOCCCCCCCl [Compound 7]
- MIC [3]: 0.5 µg/mL (≈ 0.84 µM)

Molecule: O=C(NCCOCCOCCCCCCCl)c1cn(C2CC2)c2cc(N3CCNCC3)c(F)cc2c1=O [Compound 8, Ciprofloxacin-carboxy-HaloTag amide]
- MIC [3]: 4 µg/mL (≈ 7.45 µM)
- increase of MIC value ([3]; relative to derivatives 6 and 7): 8 fold

Molecule: Clc1cccc(CN=C2Nc3ccccc3NC23CCNCC3)c1 [liproxstatin]
- cellular fluorescence on co-incubation with R110cl [4]: increase in cellular fluorescence

Molecule: polymyxin B nonapeptide [PMBN]
- cellular fluorescence relative to cells not treated with PMBN ([4]; 10 μM of PMBN, co-treatment with R110cl): double
- cellular fluorescence on co-incubation with R110cl [4]: concentration-dependent increase in cellular fluorescence
- bacterial viability [5]: no loss of bacterial viability
